Data as given in PubChem BioAssay AID2060614 (Molecular Pharmacology Branch, DTP, NCI, 2025).

Test system: 598228-144-R-J1-PDC complex spheroids, viability
Assay: Anticancer human tumor 598228-144-R-J1-PDC patient-derived serous endometrial adenocarcinoma cell line growth inhibition [CLK]
Details: for IC50: curve of first compound; for viability, T/C: stronger effect = lower value
In short: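 Patient-derived tumor cells grown as complex spheroids with HUVEC endothelial cells and mesenchymal stem cells, treated with drug combinations. Concentrations descend in half-log steps from near clinical Cmax, or from 10 microM if Cmax unknown.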

[1] = second compound 0.0316 µM, first compound 0.0316 µM
[2] = second compound 0.0316 µM, first compound 0.1 µM
[3] = second compound 0.0316 µM, first compound 0.316 µM
[4] = second compound 0.0316 µM, first compound 1 µM
[5] = second compound 0.0316 µM, first compound 3.16 µM
[6] = second compound 0.0316 µM, first compound 10 µM
[7] = second compound 0.1 µM, first compound 0.0316 µM
[8] = second compound 0.1 µM, first compound 0.1 µM
[9] = second compound 0.1 µM, first compound 0.316 µM
[10] = second compound 0.1 µM, first compound 1 µM
[11] = second compound 0.1 µM, first compound 3.16 µM
[12] = second compound 0.1 µM, first compound 10 µM
[13] = second compound 0.316 µM, first compound 0.0316 µM
[14] = second compound 0.316 µM, first compound 0.1 µM
[15] = second compound 0.316 µM, first compound 0.316 µM
[16] = second compound 0.316 µM, first compound 1 µM
[17] = second compound 0.316 µM, first compound 3.16 µM
[18] = second compound 0.316 µM, first compound 10 µM
[19] = second compound 1 µM, first compound 0.0316 µM
[20] = second compound 1 µM, first compound 0.1 µM
[21] = second compound 1 µM, first compound 0.316 µM
[22] = second compound 1 µM, first compound 1 µM
[23] = second compound 1 µM, first compound 3.16 µM
[24] = second compound 1 µM, first compound 10 µM
[25] = second compound 3.16 µM, first compound 0.0316 µM
[26] = second compound 3.16 µM, first compound 0.1 µM
[27] = second compound 3.16 µM, first compound 0.316 µM
[28] = second compound 3.16 µM, first compound 1 µM
[29] = second compound 3.16 µM, first compound 3.16 µM
[30] = second compound 3.16 µM, first compound 10 µM
[31] = second compound 10 µM, first compound 0.0316 µM
[32] = second compound 10 µM, first compound 0.1 µM
[33] = second compound 10 µM, first compound 0.316 µM
[34] = second compound 10 µM, first compound 1 µM
[35] = second compound 10 µM, first compound 3.16 µM
[36] = second compound 10 µM, first compound 10 µM
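Further: spheroids exposed to compounds for seven days before readout.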
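Wherever viability, T/C is given: 100% = DMSO vehicle control wells.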

Structure (SMILES): CC1COCCN1c1cc(C2(S(C)(=N)=O)CC2)nc(-c2ccnc3[nH]ccc23)n1 (centres undefined) + CN1CCN(c2cc(C(=O)Nc3cc4cc(-c5cnn(C)c5)ccc4cn3)ccn2)CC1
- IC50 (second compound 0.0316 µM): 6130 nM
- IC50 (second compound 0.1 µM): 3010 nM
- IC50 (second compound 0.316 µM): < 31.6 nM
- IC50 (second compound 1 µM): < 31.6 nM
- IC50 (second compound 3.16 µM): < 31.6 nM
- IC50 (second compound 10 µM): < 31.6 nM
- viability, T/C [1]: 126%
- viability, T/C [2]: 125%
- viability, T/C [3]: 105%
- viability, T/C [4]: 102%
- viability, T/C [5]: 63.5%
- viability, T/C [6]: 38.3%
- viability, T/C [7]: 127%
- viability, T/C [8]: 122%
- viability, T/C [9]: 110%
- viability, T/C [10]: 89.1%
- viability, T/C [11]: 46%
- viability, T/C [12]: 28.6%
- viability, T/C [13]: 17.1%
- viability, T/C [14]: 16.4%
- viability, T/C [15]: 17.9%
- viability, T/C [16]: 14.8%
- viability, T/C [17]: 16.3%
- viability, T/C [18]: 13.3%
- viability, T/C [19]: 1.37%
- viability, T/C [20]: 1.72%
- viability, T/C [21]: 2.93%
- viability, T/C [22]: 1.07%
- viability, T/C [23]: 2.89%
- viability, T/C [24]: 7.44%
- viability, T/C [25]: 1.86%
- viability, T/C [26]: 3.02%
- viability, T/C [27]: 2%
- viability, T/C [28]: 1.65%
- viability, T/C [29]: 3.13%
- viability, T/C [30]: 7.42%
- viability, T/C [31]: 1.07%
- viability, T/C [32]: 1.83%
- viability, T/C [33]: 2.32%
- viability, T/C [34]: 0.91%
- viability, T/C [35]: 2.14%
- viability, T/C [36]: 3.43%

Structure (SMILES): O=C(c1cc(Cc2n[nH]c(=O)c3ccccc23)ccc1F)N1CCN(C(=O)C2CC2)CC1 + CN1CCN(c2cc(C(=O)Nc3cc4cc(-c5cnn(C)c5)ccc4cn3)ccn2)CC1
- IC50 (second compound 0.0316 µM): > 10000 nM
- IC50 (second compound 0.1 µM): > 10000 nM
- IC50 (second compound 0.316 µM): < 31.6 nM
- IC50 (second compound 1 µM): < 31.6 nM
- IC50 (second compound 3.16 µM): < 31.6 nM
- IC50 (second compound 10 µM): < 31.6 nM
- viability, T/C [1]: 123%
- viability, T/C [2]: 120%
- viability, T/C [3]: 114%
- viability, T/C [4]: 118%
- viability, T/C [5]: 116%
- viability, T/C [6]: 103%
- viability, T/C [7]: 130%
- viability, T/C [8]: 119%
- viability, T/C [9]: 107%
- viability, T/C [10]: 126%
- viability, T/C [11]: 125%
- viability, T/C [12]: 131%
- viability, T/C [13]: 16.7%
- viability, T/C [14]: 17.2%
- viability, T/C [15]: 18.8%
- viability, T/C [16]: 14.9%
- viability, T/C [17]: 13.7%
- viability, T/C [18]: 14.9%
- viability, T/C [19]: 1.51%
- viability, T/C [20]: 1.3%
- viability, T/C [21]: 2.76%
- viability, T/C [22]: 1.57%
- viability, T/C [23]: 2.8%
- viability, T/C [24]: 3.04%
- viability, T/C [25]: 1.72%
- viability, T/C [26]: 1.59%
- viability, T/C [27]: 1.74%
- viability, T/C [28]: 2.04%
- viability, T/C [29]: 2.75%
- viability, T/C [30]: 4.75%
- viability, T/C [31]: 0.94%
- viability, T/C [32]: 0.9%
- viability, T/C [33]: 1.84%
- viability, T/C [34]: 1.05%
- viability, T/C [35]: 1.89%
- viability, T/C [36]: 3.42%
